{"source": "patent US6486195B1", "about": "“Thermodynamically stable crystal form of 4″-deoxy-4″-epi-methylamino avermectin B1a/B1b benzoic acid salt and processes for its preparation” (Merck & Co., Inc., priority 1993, dated 2002)", "key": {"[1]": {"assay": "hygroscopicity of the crystal forms", "format": "physicochemical", "conditions": "compared with the other crystal forms (A, C, D)"}, "[2]": {"assay": "thermodynamic stability of the crystalline forms", "format": "physicochemical", "conditions": "among the four crystalline forms A, B, C and D"}}, "data": [{"substance": "4″-deoxy-4″-epi-methylamino avermectin B1a/B1b, benzoic acid salt, hemihydrate [Type B]", "values": [{"measurement": "hygroscopicity", "setting": "[1]", "value": "significantly less hygroscopic"}, {"measurement": "thermodynamic stability of crystalline form", "setting": "[2]", "value": "most thermodynamically stable"}]}]}
